Laboratory results as given in ChEMBL document CHEMBL5543081, “Design, synthesis and evaluation of antioxidant and anti-inflammatory activities of novel resveratrol derivatives as potential multifunctional drugs” (Eur J Med Chem, 2024).
Active and inactive are the calls of the source. The rule behind the calls is not given here.

Experiments:
[1] = system: RAW264.7; experiment: Antiinflammatory activity against mouse RAW264.7 cells assessed as inhibition of LPS-induced NO production at 10 uM preincubated for 4 hrs with compound followed by LPS stimulation and measured after 12 hrs; assay type: functional, cell-based; conditions: time 16.0 hrs
[2] = system: RAW264.7; experiment: Cytotoxicity against mouse RAW264.7 cells at 10 uM measured after 24 hrs by MTT assay relative to control; assay type: functional
[3] = Antioxidant activity assessed as DPPH radical scavenging activity measured for 30 mins by spectrophotometric analysis; assay type: functional
[4] = Antioxidant activity assessed as FRAP radical scavenging activity by measuring reduction of Fe3+ complex to Fe2+ analogue incubated for 30 mins by FRAP assay; assay type: functional
[5] = Antioxidant activity assessed as ABTS radical scavenging activity after 20 mins; assay type: functional
[6] = system: RAW264.7; experiment: Protection against H2O2 induced apoptosis in mouse RAW264.7 cells assessed as decrease in cleaved PARP expression at 10 uM by Western blot analysis; assay type: functional, cell-based
[7] = system: RAW264.7; experiment: Upregulation of Nrf2 expression in H2O2 induced mouse RAW264.7 cells by Western blot analysis; assay type: functional, cell-based; conditions: dose 2.5-10 µM
[8] = system: RAW264.7; experiment: Protection against H2O2 induced apoptosis in mouse RAW264.7 cells assessed as decrease in cleaved caspase-3 expression at 10 uM by Western blot analysis; assay type: functional, cell-based
[9] = system: RAW264.7; experiment: Inhibition of H2O2 induced ROS production in mouse RAW264.7 cells assessed as decrease in ROS level preincubated for 3 hrs followed by H2O2 addition and measured after 3 hrs DCFH-DA staining based flow cytometry analysis; assay type: functional, cell-based; conditions: dose 2.5-10 µM, time 6.0 hrs
[10] = system: RAW264.7; experiment: Antiinflammatory activity in LPS-stimulated mouse RAW264.7 cells assessed as inhibition of JNK phosphorylation level preincubated for 4 hrs followed by LPS stimulation for 12 hrs by Western blot analysis; assay type: functional, cell-based; conditions: dose 2.5-10 µM, time 16.0 hrs
[11] = system: RAW264.7; experiment: Antiinflammatory activity in LPS-stimulated mouse RAW264.7 cells assessed as reduction in iNOS mRNA expression preincubated for 4 hrs followed by LPS stimulation for 12 hrs by RT-qPCR analysis; assay type: functional, cell-based; conditions: dose 2.5-10 µM, time 16.0 hrs
[12] = system: RAW264.7; experiment: Upregulation of HO-1 mRNA expression in H2O2 induced mouse RAW264.7 cells at 2.5 to 10 uM by RT-qPCR analysis; assay type: functional, cell-based; conditions: dose 2.5-10 µM
[13] = system: RAW264.7; experiment: Antiinflammatory activity in LPS-stimulated mouse RAW264.7 cells assessed as effect on ERK phosphorylation level preincubated for 4 hrs followed by LPS stimulation for 12 hrs by Western blot analysis; assay type: functional, cell-based; conditions: time 16.0 hrs
[14] = system: RAW264.7; experiment: Protection against H2O2 induced apoptosis in mouse RAW264.7 cells assessed as cell apoptosis rate at 10 uM preincubated for 3 hrs with compound followed by H2O2 stimulation and measured after 3 hrs by annexin V-FITC and PI staining based flow cytometry analysis (reference value: 15.63%); assay type: functional; conditions: time 6 hrs
[15] = system: RAW264.7; experiment: Antiinflammatory activity in LPS-stimulated mouse RAW264.7 cells assessed as reduction in NF-kappaB p65 phosphorylation level at 10 uM preincubated for 4 hrs followed by LPS stimulation for 12 hrs by Western blot analysis; assay type: functional, cell-based; conditions: time 16.0 hrs
[16] = system: RAW264.7; experiment: Upregulation of CAT mRNA expression in H2O2 induced mouse RAW264.7 cells at 2.5 to 10 uM by RT-qPCR analysis; assay type: functional, cell-based; conditions: dose 2.5-10 µM
[17] = system: RAW264.7; experiment: Upregulation of SOD mRNA expression in H2O2 induced mouse RAW264.7 cells at 2.5 to 10 uM by RT-qPCR analysis; assay type: functional, cell-based; conditions: dose 2.5-10 µM
[18] = system: RAW264.7; experiment: Antiinflammatory activity in LPS-stimulated mouse RAW264.7 cells assessed as reduction in iNOS level preincubated for 4 hrs followed by LPS stimulation for 12 hrs by Western blot analysis; assay type: functional, cell-based; conditions: dose 2.5-10 µM, time 16.0 hrs
[19] = system: RAW264.7; experiment: Effect on KEAP1 level in H2O2 induced mouse RAW264.7 cells at 2.5 to 10 uM by Western blot analysis; assay type: functional, cell-based; conditions: dose 2.5-10 µM
[20] = system: RAW264.7; experiment: Antiinflammatory activity in LPS-stimulated mouse RAW264.7 cells assessed as inhibition of p38 phosphorylation level preincubated for 4 hrs followed by LPS stimulation for 12 hrs by Western blot analysis; assay type: functional, cell-based; conditions: dose 2.5-10 µM, time 16.0 hrs
[21] = system: RAW264.7; experiment: Upregulation of GPx mRNA expression in H2O2 induced mouse RAW264.7 cells at 2.5 to 10 uM by RT-qPCR analysis; assay type: functional, cell-based; conditions: dose 2.5-10 µM
[22] = system: RAW264.7; experiment: Upregulation of HO-1 protein level in H2O2 induced mouse RAW264.7 cells at 2.5 to 10 uM by Western blot analysis; assay type: functional, cell-based; conditions: dose 2.5-10 µM
[23] = system: RAW264.7; experiment: Inhibition of H2O2 induced ROS production in mouse RAW264.7 cells assessed as decrease in ROS level at 10 uM preincubated for 3 hrs followed by H2O2 addition and measured after 3 hrs DCFH-DA staining based flow cytometry analysis; assay type: functional, cell-based; conditions: time 6.0 hrs
[24] = system: RAW264.7; experiment: Upregulation of Nrf2 expression in H2O2 induced mouse RAW264.7 cells at 10 uM by Western blot analysis; assay type: functional, cell-based
[25] = system: RAW264.7; experiment: Protection against H2O2 induced apoptosis in mouse RAW264.7 cells assessed as cell apoptosis rate at 10 uM preincubated for 3 hrs with compound followed by H2O2 stimulation and measured after 3 hrs by annexin V-FITC and PI staining based flow cytometry analysis; assay type: functional; conditions: time 6.0 hrs

SMILES | IC50 [3] [µM] | IC50 [5] [µM] | Activity [4] [µM] | other results
O=C(N/N=C\c1c(O)cc(O)cc1/C=C/c1ccc(O)cc1)c1ccccc1F | 97.8 | 17.3 | 1 | 
O=C(N/N=C\c1c(O)cc(O)cc1/C=C/c1ccc(O)cc1)c1ccccc1 | 84.4 | 13.4 | 0.7 | 
O=C(N/N=C\c1c(O)cc(O)cc1/C=C/c1ccc(O)cc1)c1cccnc1 | 89.5 | 12.7 | 1.2 | Activity [2]: >80%
O=C(N/N=C\c1c(O)cc(O)cc1/C=C/c1ccc(O)cc1)c1ccc(Cl)cc1 | 89.5 | 17.9 | 0.7 | 
N#Cc1ccc(C(=O)N/N=C\c2c(O)cc(O)cc2/C=C/c2ccc(O)cc2)cc1 | 84 | 18.2 | 0.6 | 
O=C(N/N=C\c1c(O)cc(O)cc1/C=C/c1ccc(O)cc1)c1ccc(Br)cc1 | 84 | 13 | 0.5 | 
Oc1ccc(/C=C/c2cc(O)cc(O)c2)cc1 [RESVERATROL] | 86.6 | 18.4 | 0.9 | Activity [6]: inactive; Activity [8]: inactive; Activity [24]: inactive; Activity [25]: inactive; Activity [13]: inactive; Activity [19]: inactive
Cc1ccccc1C(=O)N/N=C\c1c(O)cc(O)cc1/C=C/c1ccc(O)cc1 | 97.3 | 17.2 | 0.4 | 
O=C(N/N=C\c1c(O)cc(O)cc1/C=C/c1ccc(O)cc1)c1ccncc1 | 104 | 13.5 | 1.1 | Activity [2]: >80%
O=C(N/N=C\c1c(O)cc(O)cc1/C=C/c1ccc(O)cc1)c1ccc(F)cc1 | 86.3 | 15.7 | 0.8 | 
Cc1ccc(C(=O)N/N=C\c2c(O)cc(O)cc2/C=C/c2ccc(O)cc2)cc1 | 87 | 15.7 | 0.5 | 
O=C(N/N=C\c1c(O)cc(O)cc1/C=C/c1ccc(O)cc1)c1ccccn1 | 98.3 | 17.1 | 0.9 | Activity [1]: Active; Activity [2]: >80%; inhibition [23]: Active

More lines, main results first:

IC50 [3] [µM] | IC50 [5] [µM] | SMILES | Activity [4] [µM] | other results
76.6 | 11.7 | O=C(N/N=C\c1c(O)cc(O)cc1/C=C/c1ccc(O)cc1)c1cccc(O)c1 | 1.3 | Activity [1]: Active; Activity [2]: >80%
69.9 | 13 | O=C(N/N=C\c1c(O)cc(O)cc1/C=C/c1ccc(O)cc1)c1ccc(O)cc1 | 1.1 | Activity [6]: Active; Activity [7]: Dose-Dependent Effect; Activity [8]: Active; Activity [1]: Active; Activity [2]: >80%; inhibition [9]: Dose-Dependent Effect; Activity [10]: Dose-Dependent Effect; Activity [11]: Dose-Dependent Effect; Activity [12]: Active; Activity [13]: inactive; Activity [14]: 26.58%; Activity [15]: Active; Activity [16]: inactive; Activity [17]: inactive; Activity [18]: Dose-Dependent Effect; Activity [19]: inactive; Activity [20]: Dose-Dependent Effect; Activity [21]: inactive; Activity [22]: Active; inhibition [23]: Active
32.7 | 14.7 | Cc1c(C)c2c(c(C)c1O)CCC(C)(C(=O)O)O2 (stereo not given) [TROLOX] | 2.5 | 
46.2 | 9.7 | Nc1ccc(C(=O)N/N=C\c2c(O)cc(O)cc2/C=C/c2ccc(O)cc2)cc1 | 2.2 | Activity [2]: >80%
80.8 | 18 | Cc1cccc(C(=O)N/N=C\c2c(O)cc(O)cc2/C=C/c2ccc(O)cc2)c1 | 0.9 | 
39.8 | 8.5 | Nc1ccccc1C(=O)N/N=C\c1c(O)cc(O)cc1/C=C/c1ccc(O)cc1 | 1.5 | 
37.8 | 12.8 | O=C(N/N=C\c1c(O)cc(O)cc1/C=C/c1ccc(O)cc1)c1ccccc1O | 0.9 | 
79.9 | 11.6 | O=C(N/N=C\c1c(O)cc(O)cc1/C=C/c1ccc(O)cc1)c1cccc([N+](=O)[O-])c1 | 0.4 | 
81.9 | 15.2 | O=C(N/N=C\c1c(O)cc(O)cc1/C=C/c1ccc(O)cc1)c1cccc(Cl)c1 | 0.9 | 
82.6 | 12.5 | O=C(N/N=C\c1c(O)cc(O)cc1/C=C/c1ccc(O)cc1)c1cccc(F)c1 | 0.8 | 
